In ChEMBL document CHEMBL5465560, “Selectivity Literature for EUbOPEN Chemogenomic Library” (2024):
One block for each compound: values may come before it.

Key:
[1] = target: Dual specificity mitogen-activated protein kinase kinase 2 (Homo sapiens) (UniProt P36507); test: Selectivity interaction (LanthaScreen Eu Kinase Binding Assay) EUB0001632a MAP2K2; conditions: at 10 µM
[2] = target: T1, Serine/threonine-protein kinase Nek2 (Homo sapiens) (UniProt P51955); test: Selectivity interaction (KinomeScan (DiscoverX)) EUB0000666a NEK2; conditions: at 10 µM
T1 sequence (whole entry): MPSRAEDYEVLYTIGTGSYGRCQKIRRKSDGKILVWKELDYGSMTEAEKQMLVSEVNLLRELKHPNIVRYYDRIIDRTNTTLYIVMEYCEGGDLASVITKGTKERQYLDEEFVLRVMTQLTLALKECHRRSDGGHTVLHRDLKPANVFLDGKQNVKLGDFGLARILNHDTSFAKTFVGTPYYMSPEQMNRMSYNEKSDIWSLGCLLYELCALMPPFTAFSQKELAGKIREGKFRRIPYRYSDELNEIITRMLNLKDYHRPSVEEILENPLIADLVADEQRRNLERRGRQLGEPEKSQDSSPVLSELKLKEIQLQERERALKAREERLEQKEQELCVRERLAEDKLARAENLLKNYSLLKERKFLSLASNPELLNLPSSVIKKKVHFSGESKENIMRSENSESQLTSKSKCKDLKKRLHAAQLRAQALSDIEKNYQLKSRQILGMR

[3] = target: T2, Serine/threonine-protein kinase PLK4 (Homo sapiens) (UniProt O00444); test: Selectivity interaction (KinomeScan (DiscoverX)) EUB0000607a PLK4; conditions: at 10 µM
T2 sequence (whole entry): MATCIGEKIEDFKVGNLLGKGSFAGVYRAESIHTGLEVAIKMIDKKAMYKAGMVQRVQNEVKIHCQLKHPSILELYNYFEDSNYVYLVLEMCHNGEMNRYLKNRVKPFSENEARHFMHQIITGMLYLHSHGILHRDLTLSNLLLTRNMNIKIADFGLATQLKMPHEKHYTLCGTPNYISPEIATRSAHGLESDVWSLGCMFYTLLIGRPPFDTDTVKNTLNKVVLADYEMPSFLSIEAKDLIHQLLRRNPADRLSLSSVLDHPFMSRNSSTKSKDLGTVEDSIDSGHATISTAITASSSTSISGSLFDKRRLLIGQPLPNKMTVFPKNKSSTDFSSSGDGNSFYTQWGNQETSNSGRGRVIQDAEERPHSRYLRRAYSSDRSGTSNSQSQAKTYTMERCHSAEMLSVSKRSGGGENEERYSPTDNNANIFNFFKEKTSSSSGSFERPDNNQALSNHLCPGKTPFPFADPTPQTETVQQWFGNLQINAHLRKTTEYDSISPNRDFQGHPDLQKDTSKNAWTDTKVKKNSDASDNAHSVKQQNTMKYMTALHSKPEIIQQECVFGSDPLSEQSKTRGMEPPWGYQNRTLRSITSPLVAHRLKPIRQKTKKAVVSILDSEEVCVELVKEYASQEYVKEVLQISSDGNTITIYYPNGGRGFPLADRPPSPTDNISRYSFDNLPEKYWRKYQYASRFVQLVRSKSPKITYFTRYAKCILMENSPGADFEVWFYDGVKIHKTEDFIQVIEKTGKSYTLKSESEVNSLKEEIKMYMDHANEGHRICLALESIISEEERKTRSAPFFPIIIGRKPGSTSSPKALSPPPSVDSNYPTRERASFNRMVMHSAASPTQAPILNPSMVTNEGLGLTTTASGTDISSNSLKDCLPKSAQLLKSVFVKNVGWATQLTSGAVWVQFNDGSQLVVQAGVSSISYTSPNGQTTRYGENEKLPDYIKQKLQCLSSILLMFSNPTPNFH

[4] = target: T3, Serine/threonine-protein kinase Chk1 (Homo sapiens) (UniProt O14757); conditions: at 10 µM
T3 sequence (whole entry): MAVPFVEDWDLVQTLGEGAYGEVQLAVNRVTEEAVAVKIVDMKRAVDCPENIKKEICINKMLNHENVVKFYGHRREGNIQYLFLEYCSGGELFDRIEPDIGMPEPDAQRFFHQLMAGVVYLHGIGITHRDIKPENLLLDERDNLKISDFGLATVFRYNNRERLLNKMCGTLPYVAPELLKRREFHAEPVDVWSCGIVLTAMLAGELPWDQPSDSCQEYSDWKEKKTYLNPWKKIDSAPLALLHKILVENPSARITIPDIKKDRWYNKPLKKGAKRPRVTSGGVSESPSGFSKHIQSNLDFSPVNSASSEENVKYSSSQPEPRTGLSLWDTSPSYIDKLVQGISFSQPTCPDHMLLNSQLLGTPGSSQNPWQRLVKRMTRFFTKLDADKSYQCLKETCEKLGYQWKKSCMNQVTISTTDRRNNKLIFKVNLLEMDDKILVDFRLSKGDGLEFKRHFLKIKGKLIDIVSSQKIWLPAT

[5] = target: Serine/threonine-protein kinase PRP4 homolog (Homo sapiens) (UniProt Q13523); test: Selectivity interaction (ActivX KiNativ screen (kinase selectivity in THP-1 cell lysates)) EUB0000639a PRPF4; type: subcellular; conditions: lysate, at 0.04 µM
[6] = target: Protein-tyrosine kinase 6 (Homo sapiens, UniProt Q13882); test: Selectivity interaction (KinaseProfiler screening (Millipore)) EUB0000601a PTK6; conditions: at 3 µM
[7] = target: RAF proto-oncogene serine/threonine-protein kinase (Homo sapiens) (UniProt P04049); conditions: at 10 µM
[8] = target: T4, Dual specificity mitogen-activated protein kinase kinase 5 (Homo sapiens) (UniProt Q13163); test: Selectivity interaction (Kinase panel (KiNativ target engagement assay in Jurkat cells)) EUB0001635a MAP2K5; type: cell-based; conditions: Selectivity number of off-targets 0.0, Selectivity number of targets 233.0, Source Knowledge https://www.sciencedirect.com/science/article/pii/S2451945619300674?via%3Dihub, at 1 µM
T4 sequence (whole entry): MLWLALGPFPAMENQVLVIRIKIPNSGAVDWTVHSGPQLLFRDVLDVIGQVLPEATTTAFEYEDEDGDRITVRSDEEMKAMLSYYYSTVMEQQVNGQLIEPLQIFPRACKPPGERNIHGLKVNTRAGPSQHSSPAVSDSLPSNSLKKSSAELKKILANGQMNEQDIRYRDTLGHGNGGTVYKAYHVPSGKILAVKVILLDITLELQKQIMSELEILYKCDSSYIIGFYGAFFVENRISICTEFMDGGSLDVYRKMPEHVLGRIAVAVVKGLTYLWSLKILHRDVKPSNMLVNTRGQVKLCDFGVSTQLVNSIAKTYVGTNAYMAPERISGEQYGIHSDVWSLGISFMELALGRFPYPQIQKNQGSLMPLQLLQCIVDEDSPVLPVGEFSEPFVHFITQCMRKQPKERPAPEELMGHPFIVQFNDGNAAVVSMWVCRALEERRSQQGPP

[9] = target: Serine/threonine-protein kinase SIK3 (Homo sapiens) (UniProt Q9Y2K2); test: Selectivity interaction (KinomeScan (DiscoverX)) EUB0000092b SIK3; conditions: at 10 µM
[10] = target: RAF proto-oncogene serine/threonine-protein kinase (Homo sapiens) (UniProt P04049); test: Selectivity interaction (KinomeScan (DiscoverX)) EUB0001619a RAF1; conditions: at 1 µM

Chain of RAF proto-oncogene serine/threonine-protein kinase (Homo sapiens) (P04049 whole entry): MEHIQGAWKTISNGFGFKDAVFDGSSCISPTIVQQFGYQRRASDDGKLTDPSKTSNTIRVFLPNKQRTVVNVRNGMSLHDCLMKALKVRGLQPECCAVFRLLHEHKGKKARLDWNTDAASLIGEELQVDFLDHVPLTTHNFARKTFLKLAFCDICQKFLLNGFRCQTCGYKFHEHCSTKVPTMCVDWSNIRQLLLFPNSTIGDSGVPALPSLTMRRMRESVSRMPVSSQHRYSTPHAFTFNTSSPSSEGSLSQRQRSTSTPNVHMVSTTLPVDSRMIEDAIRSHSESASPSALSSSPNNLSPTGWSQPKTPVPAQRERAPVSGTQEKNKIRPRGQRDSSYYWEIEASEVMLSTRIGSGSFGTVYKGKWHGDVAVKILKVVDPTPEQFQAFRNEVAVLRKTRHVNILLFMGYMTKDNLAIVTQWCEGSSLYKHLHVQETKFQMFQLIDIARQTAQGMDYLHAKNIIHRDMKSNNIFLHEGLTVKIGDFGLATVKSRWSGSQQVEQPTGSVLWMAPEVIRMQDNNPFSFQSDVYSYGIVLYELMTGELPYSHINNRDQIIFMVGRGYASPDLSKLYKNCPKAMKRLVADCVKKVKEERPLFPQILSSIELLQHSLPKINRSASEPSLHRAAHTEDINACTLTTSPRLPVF
Chain of Dual specificity mitogen-activated protein kinase kinase 2 (Homo sapiens) (P36507 whole entry): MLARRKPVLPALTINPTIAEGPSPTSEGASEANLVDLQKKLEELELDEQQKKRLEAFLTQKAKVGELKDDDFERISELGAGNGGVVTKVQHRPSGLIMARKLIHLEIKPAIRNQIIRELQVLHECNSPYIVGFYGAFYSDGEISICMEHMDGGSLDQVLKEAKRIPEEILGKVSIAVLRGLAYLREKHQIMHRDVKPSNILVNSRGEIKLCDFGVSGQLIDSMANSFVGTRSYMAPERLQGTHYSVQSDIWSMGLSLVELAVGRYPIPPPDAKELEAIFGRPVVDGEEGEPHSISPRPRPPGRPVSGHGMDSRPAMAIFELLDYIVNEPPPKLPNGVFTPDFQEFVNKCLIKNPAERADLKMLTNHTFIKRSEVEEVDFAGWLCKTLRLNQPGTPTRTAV
Chain of Serine/threonine-protein kinase SIK3 (Homo sapiens) (Q9Y2K2 whole entry, looked up): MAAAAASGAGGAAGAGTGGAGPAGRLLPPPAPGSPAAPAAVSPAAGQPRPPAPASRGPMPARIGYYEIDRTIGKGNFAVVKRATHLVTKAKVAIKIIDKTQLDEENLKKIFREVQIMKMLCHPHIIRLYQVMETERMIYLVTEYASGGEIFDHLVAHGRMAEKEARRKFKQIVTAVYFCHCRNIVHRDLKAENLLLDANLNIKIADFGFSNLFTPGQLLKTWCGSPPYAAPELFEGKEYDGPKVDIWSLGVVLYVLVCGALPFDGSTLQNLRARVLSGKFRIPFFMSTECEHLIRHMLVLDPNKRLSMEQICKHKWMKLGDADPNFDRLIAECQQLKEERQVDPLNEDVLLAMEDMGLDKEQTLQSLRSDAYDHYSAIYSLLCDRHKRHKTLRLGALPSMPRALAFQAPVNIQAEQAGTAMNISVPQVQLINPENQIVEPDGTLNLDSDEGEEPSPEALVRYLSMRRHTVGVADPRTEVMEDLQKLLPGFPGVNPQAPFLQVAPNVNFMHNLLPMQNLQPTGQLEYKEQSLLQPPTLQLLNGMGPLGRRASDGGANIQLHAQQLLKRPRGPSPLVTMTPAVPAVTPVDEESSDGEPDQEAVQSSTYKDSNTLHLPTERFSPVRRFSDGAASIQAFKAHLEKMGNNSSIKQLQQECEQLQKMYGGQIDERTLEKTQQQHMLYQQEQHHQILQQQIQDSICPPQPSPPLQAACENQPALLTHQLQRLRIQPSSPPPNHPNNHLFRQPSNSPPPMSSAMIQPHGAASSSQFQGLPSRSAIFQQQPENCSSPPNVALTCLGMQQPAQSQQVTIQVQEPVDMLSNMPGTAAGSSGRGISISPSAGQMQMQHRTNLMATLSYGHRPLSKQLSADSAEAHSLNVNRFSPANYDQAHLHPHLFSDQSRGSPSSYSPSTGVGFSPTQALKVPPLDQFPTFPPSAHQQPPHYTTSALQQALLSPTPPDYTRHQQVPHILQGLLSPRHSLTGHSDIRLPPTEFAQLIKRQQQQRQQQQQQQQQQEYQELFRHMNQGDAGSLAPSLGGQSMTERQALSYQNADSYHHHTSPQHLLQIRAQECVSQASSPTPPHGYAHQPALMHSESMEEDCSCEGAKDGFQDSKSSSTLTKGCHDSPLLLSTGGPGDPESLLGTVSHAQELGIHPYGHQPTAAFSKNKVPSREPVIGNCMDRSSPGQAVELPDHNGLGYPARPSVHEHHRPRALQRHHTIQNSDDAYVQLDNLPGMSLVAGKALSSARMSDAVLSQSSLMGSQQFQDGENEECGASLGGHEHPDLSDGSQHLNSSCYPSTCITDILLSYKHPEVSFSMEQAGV
Chain of Protein-tyrosine kinase 6 (Q13882 whole entry, looked up): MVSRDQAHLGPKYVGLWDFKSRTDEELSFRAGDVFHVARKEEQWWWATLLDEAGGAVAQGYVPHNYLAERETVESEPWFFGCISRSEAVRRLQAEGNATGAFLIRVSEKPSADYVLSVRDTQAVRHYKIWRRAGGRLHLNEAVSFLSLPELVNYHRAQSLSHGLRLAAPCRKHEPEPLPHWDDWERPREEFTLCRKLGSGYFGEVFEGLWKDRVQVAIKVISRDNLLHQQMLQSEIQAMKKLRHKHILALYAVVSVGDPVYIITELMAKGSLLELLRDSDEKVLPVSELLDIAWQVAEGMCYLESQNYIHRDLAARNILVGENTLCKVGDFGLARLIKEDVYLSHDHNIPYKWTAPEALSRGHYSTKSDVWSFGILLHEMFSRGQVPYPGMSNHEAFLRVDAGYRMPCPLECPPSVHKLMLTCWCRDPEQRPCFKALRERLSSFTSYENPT
Chain of Serine/threonine-protein kinase PRP4 homolog (Homo sapiens) (Q13523 whole entry): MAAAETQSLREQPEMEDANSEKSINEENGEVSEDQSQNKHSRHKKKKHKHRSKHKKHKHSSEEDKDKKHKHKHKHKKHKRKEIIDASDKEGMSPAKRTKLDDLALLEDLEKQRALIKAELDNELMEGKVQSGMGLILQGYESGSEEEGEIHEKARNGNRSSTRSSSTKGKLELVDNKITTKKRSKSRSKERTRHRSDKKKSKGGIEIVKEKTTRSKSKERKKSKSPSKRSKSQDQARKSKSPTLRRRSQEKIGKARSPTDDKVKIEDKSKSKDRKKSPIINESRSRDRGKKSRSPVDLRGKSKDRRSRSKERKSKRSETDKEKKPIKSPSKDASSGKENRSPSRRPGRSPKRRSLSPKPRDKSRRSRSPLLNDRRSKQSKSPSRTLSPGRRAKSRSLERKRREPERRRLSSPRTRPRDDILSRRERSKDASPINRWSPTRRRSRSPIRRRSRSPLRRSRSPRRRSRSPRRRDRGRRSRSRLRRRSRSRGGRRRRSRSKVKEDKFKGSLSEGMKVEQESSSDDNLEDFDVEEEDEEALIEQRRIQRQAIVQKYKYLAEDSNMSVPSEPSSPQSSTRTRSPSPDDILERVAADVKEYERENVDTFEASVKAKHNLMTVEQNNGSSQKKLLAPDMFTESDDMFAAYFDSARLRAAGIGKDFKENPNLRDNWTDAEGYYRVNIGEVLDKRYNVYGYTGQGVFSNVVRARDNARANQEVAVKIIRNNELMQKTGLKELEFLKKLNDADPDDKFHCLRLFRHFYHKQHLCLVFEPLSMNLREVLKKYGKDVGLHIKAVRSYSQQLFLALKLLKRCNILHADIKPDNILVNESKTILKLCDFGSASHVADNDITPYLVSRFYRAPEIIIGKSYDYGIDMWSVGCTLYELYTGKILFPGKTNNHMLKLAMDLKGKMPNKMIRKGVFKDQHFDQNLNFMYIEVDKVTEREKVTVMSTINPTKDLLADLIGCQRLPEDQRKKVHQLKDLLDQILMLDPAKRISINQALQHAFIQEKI

% of inhibition [1]: -1.07%
SMILES: Cn1cc(-n2cnc3c(NCc4nc5cc(Cl)c(Cl)cc5[nH]4)nc(N4CCOCC4)nc32)cn1

SMILES: O=C(NOC[C@H](O)CO)c1ccc(F)c(F)c1Nc1ccc(I)cc1F
% of control [2]: 70%

SMILES: CNC(=O)Nc1ccc(-c2nc(N3CC4CCC(C3)O4)c3cnn(C4CCC5(CC4)OCCO5)c3n2)cc1
% of control [3]: 75%

% of control [4]: 100%
SMILES: CCN(CC)CCCCNc1ncc2cc(-c3cc(OC)cc(OC)c3)c(NC(=O)NC(C)(C)C)nc2n1

% of inhibition [5]: 4.1%
SMILES: CC[C@@H]1[C@H](F)C(=O)N[C@@H]1COc1nccc2cc(C(N)=O)c(OC)cc12 [ZIMLOVISERTIB]

% of inhibition [6]: 38%
SMILES: CCc1cc(Nc2nccc(-c3c(-c4ccc(OC)c(C(=O)Nc5c(F)cccc5F)c4)nc4ccccn34)n2)c(OC)cc1N1CCC(N2CCN(S(C)(=O)=O)CC2)CC1

SMILES: COCC(=O)NC/C=C/c1ccc2ncnc(Nc3ccc(Oc4ccc(C)nc4)c(C)c3)c2c1 [CP-724714]
% of control [7]: 100%

SMILES: C=CC(=O)Nc1ccc(C(=O)Nc2[nH]nc3c2CN(C(=O)N[C@H](CN(C)C)c2ccccc2)C3(C)C)cc1
% of engagement [8]: 5.3%

SMILES: CCC(=O)N1CCN(c2ccc(-n3c(=O)ccc4cnc5ccc(-c6cnc7ccccc7c6)cc5c43)cc2C(F)(F)F)CC1
% of control [9]: 89%

SMILES: N#Cc1cccc(-c2c[nH]c3ncnc(N4CCOCC4)c23)c1
% of control [10]: 71%
